Data from patent US10342806B2, “Hormone treatment for age-related hearing loss-presbycusis” (priority 2014, dated 2019).

Columns and labels:
[1] = tested on: SGK1 and Nedd4-2; assay: SGK1 and Nedd4-2 phosphorylation in HT-29 cells, Western blot; type: cell-based, human; conditions: ALD 1 μM, GSK 650394 50 μM, 9 h
Method: FIG. 25 is a blot showing ALD modulation of NKCC1 via the ALD-SGK1-Nedd4-2 pathway. HT-29 cells were treated with ALD (1 μM) or ALD (1 μM)+GSK650394 (50 μM) for 9 h. Cell lysates were analyzed by Western blot as indicated. Blots are representative of 3 independent experiments. Left: controls. Middle: ALD increases the phosphorylations of SGK1 and Nedd4-2, concomitantly there is an increased induction of NKCC1 protein expression (1st row).
Western blot. Cell lysates were prepared in RIPA buffer (Pierce 89901; Thermo Scientific, Waltham, Mass.) with protease inhibitor cocktail (78430; Thermo Scientific). Cell samples were homogenized in buffer, followed by centrifugation at 2,000 rpm for 10 min at 4° C. Supernatants were subjected to Western blot analysis by loading 200 μg of protein per lane, after the protein concentrations were determined by Bradford protein assay. Proteins were fractionated by SDS-PAGE gel electrophoresis and transferred to a PVDF blotting membrane (Whatman, Piscataway, N.J.). The blot was incubated with primary antibodies against β-actin and Na—K-2C1 cotransport protein (Cell Signaling, Danvers Mass.); primary antibodies for p-SGK1, SGK1, pNedd4-2, and Nedd4-2 were utilized (concentration 1:1,000). The secondary antibody was horseradish peroxidaseconjugated goat anti-rabbit IgG (1:2,000; Cell Signaling).

[2] = tested on: NKCC1; conditions: Jiang et al. 2003, cited from earlier work
[3] = tested on: NKCC1; assay: 86Rb uptake in HT-29 cells; type: cell-based, human; conditions: HT-29 cells, 2, 4, 8, and 12 h after ALD
Method: Cell culture and buffers. […] Arch Oral Biol 52: 411-416, 2007). […] J Cell Sci 112: […], 1999, Epple, et al., Early aldosterone effect in distal colon by transcriptional regulation of ENaC subunits. Am J Physiol Gastrointest Liver Physiol 278: […] Am J Physiol Cell Physiol 305: […]-[…], 2013). HT-29 cells were grown in DMEM media (Invitrogen, Carlsbad Calif.) with 10% FBS and antibiotics. Cells were grown in a humidified 95%/5% CO2 incubator at 37° C. Experiments were performed at 70-80% confluence. ^86Rb uptake. Similar to previous studies of NKCC1 activity (Gagnon & Delpire, Molecular determinants of hyperosmotically activated NKCC1-mediated K_/K_exchange. J Physiol 588: 3385-3396, 2010), cells were plated on six-well dishes and incubated at 37° C./5% CO2 until confluent. For the uptake, cells were first washed twice with 1 ml of isosmotic saline (140 mM NaCl, 5 mM KCl, 2 mM CaCl2, 0.8 mM MgSO4, 5 mM glucose, 5 mM HEPES buffered to pH 7.4, and 300.5 mosM). […] After a 20-min uptake, the radioactive solution was aspirated, and the cells were washed three times with 1 ml of ice-cold solution, lysed for 1 h with 500 μl of 0.25 N NaOH, and neutralized with 250 μl of glacial acetic acid. ^86Rb tracer activity was measured by using 150 μl of lysate for γ-scintillation counting. […]

[4] = tested on: Spiral ganglion neuron (SGN); assay: Spiral ganglion neuron cell density, H&E staining of cochlear sections; type: in vivo, mouse; conditions: upper apical, lower apical, upper basal, lower basal regions; ALD-treated middle-aged mice vs untreated control mice
Method: Death was confirmed by terminal phlebotomy/exsanguinations and perfusion.
For immunohistochemistry, mice were sacrificed, and one of the cochleae dissected, fixed in 4% paraformaldehyde in PBS overnight at 4° C., decalcification in 10% EDTA in PBS for a week at 4° C., and incubated in cryoprotection solution overnight at 4° C. The cochleae were embedded into degassed OCT overnight at 4° C., orientated into the cryomold with OCT degassed for 1 hour, then frozen at −80° C. Cryosectioning was performed at 5 μm per section. The cochlear cross sections were stained with hematoxylin and eosin (H&E) and MCR (H-300) (sc-11412, Santa Cruz Bio). The spiral ganglion neurons were counted by Metamorph imaging software (Molecular Devices, Center Valley, Pa. 18034-0610) and data analyzed by GraphPad Prism (GraphPad Software, Inc. La Jolla, Calif.).
Spiral ganglion neuron (SGN) cell density was measured from 4 different topographical area, comparing ALD-treated middle-aged mice to age-matched controls. […] Further, this increase in SGN is correlated with ABR threshold shifts (shown below) in the same mice.

[5] = tested on: caspase-3; assay: Caspase-3 expression in modiolar tissue samples; type: in vivo, mouse; conditions: ALD-treated middle-aged mice vs control middle-aged and young mice
Method: During treatment, blood pressures were measured for the mice at 2 and 4 months after start of treatment. […] Death was confirmed by terminal phlebotomy/exsanguinations and perfusion. Cell lysates were collected and subject to western blot and RT-PCT analysis. The cells were placed in RIPA buffer and sonicated. Protein concentration was measured using the Bradford method. Proteins were separated by SDS-PAGE. The antibodies used for western blot were: anti-iNOS, nNOS and caspase-3 antibodies (Cell Signaling, Cambridge, Mass.). Total cellular RNA was extracted using the RNeasy Plus Mini Kit (74134). For RT-PCR, 10 ng of total cellular RNA was reverse transcribed and complementary DNA was amplified, using the Enhanced Avian HS RT-PCR-100 Kit (Sigma, HSRT20).

C[C@]12CCC(=O)C=C1CC[C@@H]1[C@@H]2[C@@H](O)C[C@]2(C=O)[C@@H](C(=O)CO)CC[C@@H]12 [ALD, aldosterone]
phosphorylation of SGK1 and Nedd4-2 [1]: increases the phosphorylation of SGK1 and Nedd4-2 | NKCC1 transcripts, real-time polymerase chain reaction [2]: did not elevate NKCC1 transcripts | increase in NKCC1 activity ([2]; adrenalectomized rats, multiday treatment): 63% | NKCC1 protein activity (86Rb uptake) [3]: upregulated NKCC1 protein activity | SGN density [4]: SGN density was higher | caspase-3 levels in modiolar tissue [5]: reduced caspase-3 to levels below even the young mice samples
